Literature values in patent publication US20090312295A1, “Second line treatment of metastatic hormone refractory prostate cancer using satraplatin” (priority 2006, published 2009).

Tests used:
[1] = system: prostate cancer cell lines PC-3, DU 145 and LNCaP
LNCaP cells = conditions: 42 hours, 12 μM satraplatin or 0.7 μM JM-118
[2] = system: human tumor cell lines with different sensitivities to cisplatin
[3] = sequential schedules
[4] = system: hormone refractory prostate cancer; conditions: symptomatic patients; mitoxantrone combined with prednisone versus prednisone alone
[5] = system: hormone refractory carcinoma of the prostate
[6] = system: hormone refractory prostate cancer; conditions: estramustine combined with either paclitaxel or docetaxel
[7] = system: hormone refractory prostate cancer; conditions: first-line HRPC
[8] = system: hormone refractory prostate cancer; conditions: 120 mg/m^2 per day for 5 days every 4 weeks, single agent
[9] = system: ovarian cancer carcinoma cell lines; conditions: panel of ovarian carcinoma cell lines
[10] = system: human ovarian carcinoma xenograft models; conditions: oral versus intravenous cisplatin and carboplatin
[11] = system: mismatch repair-proficient and mismatch repair-deficient cell lines
[12] = system: Schizosaccharomyces pombe; conditions: panel of 23 yeast strains, mutants in genes affecting radiation response
[13] = system: H460 human non-small cell lung carcinoma (NSCLC); conditions: H460 xenografted in nude mice
[14] = system: prostate carcinoma models; conditions: in vivo

N.NC1CCCCC1.[Cl-].[Cl-].[Pt+2] [JM118, reference compound]
result of treatment of prostate cancer cells [1]: tumor cell kill
PSA mRNA transcription (LNCaP cells): 90 % of control
cell number (LNCaP cells): 61 % of control
secreted PSA protein level (LNCaP cells): 61 % of control
circumvention of resistance to cisplatin [2]: can partially circumvent intrinsic and acquired resistance to cisplatin
in vitro anticancer activity in combination with erlotinib, paclitaxel or 5-FU [3]: synergistic in vitro anticancer activity

O=C1c2c(O)ccc(O)c2C(=O)c2c(NCCNCCO)ccc(NCCNCCO)c21 [Mitoxantrone]
palliative response using pain response criteria [4]: 29%

N.N.[Cl][Pt][Cl] [cisplatin]
response rates to single agent ([5]; measurable disease, several trials): generally low or poor
efficacy in patients with metastatic prostatic carcinoma ([5]; phase II trial (Qazi & Khandekar)): not effective

C[C@]12CC[C@@H]3c4ccc(OC(=O)N(CCCl)CCCl)cc4CC[C@H]3[C@@H]1CC[C@@H]2O [estramustine, Estramustine]
patients with decrease of >50% in serum PSA levels [6]: > 50%
tolerability [6]: well tolerated

C[C@]12C=CC(=O)C=C1CC[C@@H]1[C@@H]2C(=O)C[C@@]2(C)[C@H]1CC[C@]2(O)C(=O)CO [prednisone alone, prednisone]
Progression-free survival [7]: 2.5 months
patients with >50% decrease in prostate specific antigen (PSA) [7]: 8.7%
Median overall survival ([7]; 50 randomized patients): 11.9 months
palliative response using pain response criteria [4]: 12%

CC(=O)[O][Pt]([NH2])([Cl])([Cl])([NH]C1CCCCC1)[O]C(C)=O [satraplatin, bis(acetato) ammine dichloro (cyclohexylamine) platinum (IV)]
result of treatment of prostate cancer cells [1]: tumor cell kill
sensitivity of cell lines to satraplatin ([1]; androgen-insensitive PC-3 and DU 145 versus androgen-sensitive LNCaP): more sensitive
PSA mRNA transcription (LNCaP cells): 90 % of control
cell number (LNCaP cells): 56 % of control
secreted PSA protein level (LNCaP cells): 58 % of control
activity in HRPC [8]: moderate activity
toxicity [8]: significant treatment-related toxicities
cytotoxicity compared with cisplatin [9]: significantly more cytotoxic than cisplatin
efficacy of orally administered satraplatin [10]: comparable to that of cisplatin and carboplatin administered intravenously
sensitivity, mismatch repair-proficient versus -deficient cell lines [11]: no difference in sensitivity
change in sensitivity of mutants [12]: none of the mutants demonstrated an appreciable change in sensitivity
radiopotentiation (human lung cancer cells): can potentiate the effects of radiation
circumvention of resistance to cisplatin [2]: can partially circumvent intrinsic and acquired resistance to cisplatin
platinum-DNA adduct levels compared to cisplatin ([2]; equimolar basis): lower levels of platinum-DNA adducts
antitumor activity of combination with docetaxel [13]: synergistic antitumor activity
antitumor activity of combination with paclitaxel [13]: antitumor activity
antitumor activity of combination with docetaxel [14]: synergistic antitumor activity
antitumor activity of combination with paclitaxel [14]: synergistic antitumor activity
